# Laboratory results from the supplement of paper PMC11208160.
# Experiment: recombinant barcode read abundance after kanamycin selection (control-corrected) (log10(CPM+1)); higher = more efficient recombination; sequences stand for … in AGTGCAGAGAAAATCGGCCAGTTTTCTCTGCCTGCAGTCCGCATGCCGT…AGATTTATGCAGCGGACTGCCTTTCTCCCAAAGTGATAAACCGGACAGTATCATGGACCGGTTTTCCCGGTAATCCGTATTTGCAAGGTTGGTTTCACT; site = the 11-nt target
# How it was run: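 Two replicates per condition were plated: chloramphenicol/ampicillin LB agar for the control, and chloramphenicol/ampicillin/kanamycin with 0.1 mM IPTG for selection. The pooled E. coli screen behind them paired targets with IS621 bridge RNA target-binding loops. Recombination efficiency is expressed from averaged, control-corrected barcode counts per million at recombinant junctions, as log10(CPM+1).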
# 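Note: IS621 recombinase and bridge RNA in Escherichia coli cells.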
row,Sequence,recombinant barcode read abundance (log10)
1,CTCCAGCCTTGGGTTCTAACCTGTTGCGG (site CTCCAGCCTCC),1.49
2,CTCCCAACTTGGGTTCTAACCTGTTGCCG (site CTCCCAACTCG),0.136
3,CTCCCAACTTGGGTTCTAACCTGTTGCCG (site CTCCCTACTCT),0.356
4,CTCCCAACTTGGGTTCTAACCTGTTGCCT (site CTCCCAACTAG),0.379
5,CTCCCAACTTGGGTTCTAACCTGTTGCCT (site TTCCCTACTAG),0.446
6,CTCCCATCTTGGGTTCTAACCTGTTGCGT (site CTCCCATCTAC),0.874
7,CTCCCATCTTGGGTTCTAACCTGTTGCGT (site CTCCGATCTCC),0.165
8,CTCCCTTCTTGGGTTCTAACCTGTTGCTT (site CTCCCTTCTAA),0.534
9,CTCCCTTCTTGGGTTCTAACCTGTTGCTT (site CTTCCTTCTAG),0.104
10,CTCCGAGCTTGGGTTCTAACCTGTTGCAC (site CTCCGAGCTGT),0.201
11,CTCCGAGCTTGGGTTCTAACCTGTTGCAC (site GGAACGACTAC),0.0202
12,CTCCGATCTTGGGTTCTAACCTGTTGCGG (site CTCCCATCTAC),0
13,CTCCGATCTTGGGTTCTAACCTGTTGCGG (site CTCCGATCTCC),0.0434
14,CTCCGCCCTTGGGTTCTAACCTGTTGCCT (site CTCCGCCCTAG),0.776
15,CTCCGCCCTTGGGTTCTAACCTGTTGCCT (site CTCCGTCCTAC),0.0714
16,CTCCGGGCTTGGGTTCTAACCTGTTGCAG (site CTCCGGGCTCT),1.81
17,CTCCGGGCTTGGGTTCTAACCTGTTGCAG (site TATACACCTAC),0.0879
18,CTCCGGTCTTGGGTTCTAACCTGTTGCTT (site CACGGGTCTAA),0.22
19,CTCCGGTCTTGGGTTCTAACCTGTTGCTT (site CTCCGGTCTAA),1.77
20,CTCCGTACTTGGGTTCTAACCTGTTGCAT (site CTCCGAACTAA),0.0945
21,CTCCGTACTTGGGTTCTAACCTGTTGCAT (site CTCCGTACTAT),1.14
22,CTCCGTCCTTGGGTTCTAACCTGTTGCCG (site CTCCGTCCTCG),1.25

row,Sequence,recombinant barcode read abundance (log10)
1,CTCCGTCCTTGGGTTCTAACCTGTTGCCG (site GCCCGTCCTCG),0.272
2,CTCCGTCCTTGGGTTCTAACCTGTTGCCT (site CTCCGTCCTAG),1.5
3,CTCCGTCCTTGGGTTCTAACCTGTTGCCT (site CTGCGTCCTAG),0.252
4,CTCCGTCCTTGGGTTCTAACCTGTTGCTT (site CTCCGACCTAA),0.106
5,CTCCGTCCTTGGGTTCTAACCTGTTGCTT (site CTCCGCCCTAA),0.111
6,CTCCGTCCTTGGGTTCTAACCTGTTGCTT (site CTCCGGCCTAA),0.589
7,CTCCGTCCTTGGGTTCTAACCTGTTGCTT (site CTCCGTCCTAA),0.445
8,CTCCTATCTTGGGTTCTAACCTGTTGCCT (site CTCCAATCTAG),0.238
9,CTCCTATCTTGGGTTCTAACCTGTTGCCT (site CTCCTATCTAG),0.848
10,CTCGAATCTTGGGTTCTAACCTGTTGCTA (site CTCGAACCTCA),0.175
11,CTCGAATCTTGGGTTCTAACCTGTTGCTA (site CTCGAATCTTA),1.17
12,CTCGACCCTTGGGTTCTAACCTGTTGCCT (site CTCGACCCTAG),1.7
13,CTCGACCCTTGGGTTCTAACCTGTTGCCT (site CTGGATCCTAG),0.0491
14,CTCGATACTTGGGTTCTAACCTGTTGCTT (site CTCGATACTAA),0.684
15,CTCGATACTTGGGTTCTAACCTGTTGCTT (site CTCGCTACTAA),0.096
16,CTCGCCACTTGGGTTCTAACCTGTTGCCT (site CTCGCCACTAG),0.186
17,CTCGCCACTTGGGTTCTAACCTGTTGCCT (site GAGTTGTCTCC),0.0691
18,CTCGGAGCTTGGGTTCTAACCTGTTGCCG (site CTCGGAGCTCG),0.596
19,CTCGGAGCTTGGGTTCTAACCTGTTGCCG (site CTCGGATCTTG),0.47
20,CTCGGATCTTGGGTTCTAACCTGTTGCCA (site CTCGGAGCTCG),0.167
21,CTCGGATCTTGGGTTCTAACCTGTTGCCA (site CTCGGATCTTG),0.0484
22,CTCGGTACTTGGGTTCTAACCTGTTGCCA (site CTCGGTACTTG),0.489

row,Sequence,recombinant barcode read abundance (log10)
1,CTCGGTACTTGGGTTCTAACCTGTTGCCA (site CTCGGTTCTAG),0.0612
2,CTCGGTGCTTGGGTTCTAACCTGTTGCCT (site CACGGTCCTAG),0.118
3,CTCGGTGCTTGGGTTCTAACCTGTTGCCT (site CTCGGTGCTAG),1.15
4,CTCGTGTCTTGGGTTCTAACCTGTTGCAG (site CTCGTGTCTCT),1.95
5,CTCGTGTCTTGGGTTCTAACCTGTTGCAG (site CTCTTGTCTCA),0.0182
6,CTCGTGTCTTGGGTTCTAACCTGTTGCAT (site AGAACTACTTG),0.00883
7,CTCGTGTCTTGGGTTCTAACCTGTTGCAT (site CTCGTGTCTAT),2.88
8,CTCTACACTTGGGTTCTAACCTGTTGCCA (site CTCTAAACTTG),0.0347
9,CTCTACACTTGGGTTCTAACCTGTTGCCA (site CTCTACACTTG),0.879
10,CTCTACACTTGGGTTCTAACCTGTTGCCA (site CTCTAGACTTG),0.161
11,CTCTACACTTGGGTTCTAACCTGTTGCCA (site CTCTATACTTG),0.0697
12,CTCTACCCTTGGGTTCTAACCTGTTGCAG (site AGAGCGACTTA),0.0772
13,CTCTACCCTTGGGTTCTAACCTGTTGCAG (site CTCTACCCTCT),1.9
14,CTCTACTCTTGGGTTCTAACCTGTTGCGT (site CTCTACTCTAC),0.529
15,CTCTACTCTTGGGTTCTAACCTGTTGCGT (site TGACCTACTTG),0.0348
16,CTCTAGACTTGGGTTCTAACCTGTTGCCA (site CTCTAAACTTG),0.193
17,CTCTAGACTTGGGTTCTAACCTGTTGCCA (site CTCTACACTTG),0.0305
18,CTCTAGACTTGGGTTCTAACCTGTTGCCA (site CTCTAGACTTG),0.69
19,CTCTAGACTTGGGTTCTAACCTGTTGCCA (site CTCTATACTTG),0.0325
20,CTCTAGCCTTGGGTTCTAACCTGTTGCGT (site CTCTAACCTAC),1.38
21,CTCTAGCCTTGGGTTCTAACCTGTTGCGT (site CTCTACCCTAC),0.178
22,CTCTAGCCTTGGGTTCTAACCTGTTGCGT (site CTCTAGCCTAC),1.25

row,Sequence,recombinant barcode read abundance (log10)
1,CTCTAGCCTTGGGTTCTAACCTGTTGCGT (site CTCTATCCTAC),0.0754
2,CTCTAGTCTTGGGTTCTAACCTGTTGCCT (site CTCTAGTCTAA),0.0156
3,CTCTAGTCTTGGGTTCTAACCTGTTGCCT (site CTCTAGTCTAC),0.792
4,CTCTAGTCTTGGGTTCTAACCTGTTGCCT (site CTCTAGTCTAG),0.154
5,CTCTAGTCTTGGGTTCTAACCTGTTGCCT (site CTCTAGTCTAT),0.526
6,CTCTATACTTGGGTTCTAACCTGTTGCCA (site CTCTAAACTTG),0.0863
7,CTCTATACTTGGGTTCTAACCTGTTGCCA (site CTCTACACTTG),0.102
8,CTCTATACTTGGGTTCTAACCTGTTGCCA (site CTCTAGACTTG),0.511
9,CTCTATACTTGGGTTCTAACCTGTTGCCA (site CTCTATACTTG),0.0112
10,CTCTATCCTTGGGTTCTAACCTGTTGCGT (site CTCTAACCTAC),0.526
11,CTCTATCCTTGGGTTCTAACCTGTTGCGT (site CTCTACCCTAC),0.218
12,CTCTATCCTTGGGTTCTAACCTGTTGCGT (site CTCTAGCCTAC),0.376
13,CTCTATCCTTGGGTTCTAACCTGTTGCGT (site CTCTATCCTAC),0.551
14,CTCTCGTCTTGGGTTCTAACCTGTTGCGT (site CTCTCGTCTAA),0.0993
15,CTCTCGTCTTGGGTTCTAACCTGTTGCGT (site CTCTCGTCTAC),1.19
16,CTCTCGTCTTGGGTTCTAACCTGTTGCGT (site CTCTCGTCTAG),0.291
17,CTCTCGTCTTGGGTTCTAACCTGTTGCGT (site CTCTCGTCTAT),0.0817
18,CTCTCTCCTTGGGTTCTAACCTGTTGCCT (site CTCTCTCCTAG),0.261
19,CTCTCTCCTTGGGTTCTAACCTGTTGCCT (site CTCTCTTCTAG),0.148
20,CTCTGGACTTGGGTTCTAACCTGTTGCAC (site CTCTGGACTGT),0.64
